Data on 29 molecules can be found in US7423054B2, “Therapeutic pyrazolo[3,4-b]pyridines and indazoles” (Warner Lambert Company LLC, priority 2004, dated 2008).

For test [1], the target named is T1, human norepinephrine transporter (hNET) (Homo sapiens, UniProt P23975).
T1 construct: expressed in transfected cells; host or cells: HEK-293 cells (membrane preparation)
In words: hNET receptor binding ([125I]-RTI-55 displacement, membranes of transfected HEK-293 cells). Particulars: HEK-293 membranes, Ki from IC50 by Cheng-Prusoff, read-out: NET Ki. The source says:
(§1) The ability of the compounds of the present invention to inhibit a norepinephrine transporter and/or a serotonin transporter can be determined using conventional radioligand receptor transport assays. The receptors can be heterologously expressed in cell lines and experiments conducted in membrane preparations from the cell lines that express a norepinephrine transporter and/or a serotonin transporter.
Cell pastes of HEK-293 cells transfected with a human norepinephrine transporter cDNA were prepared. The cell pastes were resuspended in 400 to 700 ml of Krebs-HEPES assay buffer (25 mM HEPES, 122 mM NaCl, 3 mM KCl, 1.2 mM MgSO4, 1.3 mM CaCl2, and 11 mM glucose, pH 7.4) with a Polytron homogenizer at setting 7 for 30 seconds. Aliquots of membranes (5 mg/ml protein) were stored in liquid nitrogen until used.
The binding assay was set up in Beckman deep-well polypropylene plates with a total volume of 250 μl containing: test compound (10^−5M to 10^−12M), cell membranes, and 50 pM [^125I]-RTI-55 (Perkin Elmer, NEX-272; specific activity 2200 Ci/mmol). The reaction was incubated by gentle agitation for 90 minutes at room temperature and was terminated by filtration through Whatman GF/C filter plates using a Brandel 96-well plate harvester. Scintillation fluid (100 μl) was added to each well, and bound [^125I]-RTI-55 was determined using a Wallac Trilux Beta Plate Counter. Test compounds were run in duplicate, and specific binding was defined as the difference between binding in the presence and absence of 10 μM desipramine.
Excel and GraphPad Prism software were used for data calculation and analysis. IC50 values were converted to Ki values using the Cheng-Prusoff equation. The Ki values (nM) for the hNET are reported below in Table 11.

Test [2] has as its target T2, human serotonin transporter (hSERT) (Homo sapiens, UniProt P31645).
T2 construct: expressed in transfected cells; host or cells: HEK-293 cells (membrane preparation)
The test is described as follows: hSERT receptor binding ([125I]-RTI-55 displacement, membranes of transfected HEK-293 cells). Particulars: HEK-293 membranes, Ki from IC50 by Cheng-Prusoff, read-out: SERT Ki. On the procedure:
as §1
Cell pastes of HEK-293 cells transfected with a human serotonin transporter cDNA were prepared. The cell pastes were resuspended in 400 to 700 ml of Krebs-HEPES assay buffer (25 mM HEPES, 122 mM NaCl, 3 mM KCl, 1.2 mM MgSO4, 1.3 mM CaCl2, and 11 mM glucose, pH 7.4) with a Polytron homogenizer at Setting 7 for 30 seconds. Aliquots of membranes (˜2.5 mg/ml protein) were stored in liquid nitrogen until used.
Assays were set up in FlashPlates pre-coated with 0.1% PEI in a total volume of 250 μl containing: test compound (10^−5M to 10^−12M), cell membranes, and 50 pM [^125I]-RTI-55 (Perkin Elmer, NEX-272; specific activity 2200 Ci/mmol). The reaction was incubated and gently agitated for 90 minutes at room temperature, and terminated by removal of assay volume. Plates were covered, and bound [^125I]-RTI-55 was determined using a Wallac Trilux Beta Plate Counter. Test compounds were run in duplicate, and specific binding was defined as the difference between binding in the presence and absence of 10 μM citalopram.
Excel and GraphPad Prism software were used for data calculation and analysis. IC50 values were converted to Ki values using the Cheng-Prusoff equation. The Ki values (nM) for the hSERT are reported below in Table 11: […]

Usually Ki stands for a dissociation constant, usually derived from enzyme kinetics or from competition with a known ligand.

Where a name gives a salt, the structure may show the parent alone.

T1 sequence (P23975 whole entry): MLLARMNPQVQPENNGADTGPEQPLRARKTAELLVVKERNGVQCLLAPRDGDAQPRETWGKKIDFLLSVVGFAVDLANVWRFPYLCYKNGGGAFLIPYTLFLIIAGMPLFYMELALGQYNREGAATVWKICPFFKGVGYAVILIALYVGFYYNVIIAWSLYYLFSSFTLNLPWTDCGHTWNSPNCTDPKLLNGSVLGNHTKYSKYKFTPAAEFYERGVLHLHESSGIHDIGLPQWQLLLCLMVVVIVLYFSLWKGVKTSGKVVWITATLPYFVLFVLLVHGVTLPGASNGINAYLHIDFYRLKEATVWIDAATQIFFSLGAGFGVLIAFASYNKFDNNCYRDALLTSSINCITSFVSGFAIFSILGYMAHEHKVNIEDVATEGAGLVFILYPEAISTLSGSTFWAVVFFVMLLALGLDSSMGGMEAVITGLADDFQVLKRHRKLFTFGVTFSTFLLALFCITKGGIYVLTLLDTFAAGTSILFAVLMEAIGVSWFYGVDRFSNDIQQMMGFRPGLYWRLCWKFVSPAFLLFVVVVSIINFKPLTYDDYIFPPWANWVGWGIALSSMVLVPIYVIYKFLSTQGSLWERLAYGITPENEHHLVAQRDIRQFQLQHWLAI
T2 sequence (P31645 whole entry): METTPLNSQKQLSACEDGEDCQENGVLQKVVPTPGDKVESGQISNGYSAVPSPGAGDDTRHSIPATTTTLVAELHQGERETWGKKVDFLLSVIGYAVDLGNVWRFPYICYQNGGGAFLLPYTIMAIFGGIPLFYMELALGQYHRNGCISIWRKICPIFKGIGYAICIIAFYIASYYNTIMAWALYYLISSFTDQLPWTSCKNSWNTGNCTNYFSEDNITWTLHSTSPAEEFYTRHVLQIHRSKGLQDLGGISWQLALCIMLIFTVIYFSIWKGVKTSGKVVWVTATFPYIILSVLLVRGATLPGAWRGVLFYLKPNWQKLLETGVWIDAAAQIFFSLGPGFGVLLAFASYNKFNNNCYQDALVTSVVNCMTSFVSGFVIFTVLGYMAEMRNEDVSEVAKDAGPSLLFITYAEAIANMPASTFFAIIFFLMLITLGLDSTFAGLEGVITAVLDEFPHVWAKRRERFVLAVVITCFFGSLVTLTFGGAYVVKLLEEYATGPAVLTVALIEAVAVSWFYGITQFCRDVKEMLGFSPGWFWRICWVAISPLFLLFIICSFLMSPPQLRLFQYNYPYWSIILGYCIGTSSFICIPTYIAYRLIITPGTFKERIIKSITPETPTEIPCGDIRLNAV

As to `Fc1ccc2c(OCC3CCCNC3)nn(-c3ccccc3F)c2c1` (racemic) [Example 70, (±)-6-Fluoro-1-(2-fluoro-phenyl)-3-(piperidin-3-ylmethoxy)-1H-indazole hydrochloride], the Ki is 33.6 nM in test [1] and 200 nM in test [2].

As for `Clc1cccc2c(OC3CCNCC3)nn(-c3ccccc3)c12` [Example 61, 7-Chloro-1-phenyl-3-(piperidin-4-yloxy)-1H-indazole hydrochloride], the Ki is 20.4 nM in test [1] and 21.7 nM in test [2].

`CC1(COc2nn(-c3ccccc3F)c3ccccc23)CCCNC1` (stereo not shown) [Example 53, 1-(2-Fluoro-phenyl)-3-(3-methyl-piperidin-3-ylmethoxy)-1H-indazole hydrogen chloride]: the figures for the Ki in test [1] and in test [2] were 54.1 nM and 146 nM, respectively.

For `Fc1ccc(F)c(-n2nc(OC[C@@H]3CNCCO3)c3cc(F)ccc32)c1` [Example 26, (S)-1-(2,5-Difluoro-phenyl)-5-fluoro-3-(morpholin-2-ylmethoxy)-1H-indazole maleate], the figures for the Ki in test [1] and in test [2] were 6.9 nM and 346 nM, respectively.

For the molecule `Cc1cccc2c(OC3CCNCC3)nn(-c3ccccc3)c12` [Example 59, 7-Methyl-1-phenyl-3-(piperidin-4-yloxy)-1H-indazole hydrochloride], the Ki is 69.1 nM in test [1] and 32.7 nM in test [2].

Regarding `CC1(COc2nn(-c3ccccc3F)c3ccc(F)cc23)CCNCC1` [Example 54, 5-Fluoro-1-(2-fluoro-phenyl)-3-(4-methyl-piperdin-4-ylmethoxy)-1H-indazole hydrogen chloride], the Ki in test [1] is 274 nM; in test [2], 28.5 nM.

Turning to `Cc1ccc2c(OC3CCNCC3)nn(-c3ccccc3)c2c1` [Example 71, 6-Methyl-1-phenyl-3-(piperidin-4-yloxy)-1H-indazole hydrochloride], the Ki stood at 95.5 nM in test [1] and 20.5 nM in test [2].

`c1ccc(-n2nc(OC[C@@H]3CNCCO3)c3ccccc32)cc1` [Example 21, (S)-(+)-3-(Morpholin-2-ylmethoxy)-1-phenyl-1H-indazole hydrochloride]: the Ki in test [1] was 12.5 nM; in test [2], 1120 nM.

On to `Fc1ccc(-n2nc(OC[C@@H]3CNCCO3)c3ccccc32)cc1F` [Example 23, (S)-1-(3,4-Difluoro-phenyl)-3-(morpholin-2-ylmethoxy)-1H-indazole hydrochloride], for which the results for the Ki in test [1] and in test [2] were 11.5 nM and 1530 nM, respectively.

As for `Fc1ccccc1-n1nc(O[C@H]2CCCN2)c2ccccc21` [Example 12, (S)-(−)-1-(2-Fluorophenyl)-3-(pyrrolidin-2-yloxy)-1H-indazole hydrochloride], the Ki in test [1] is 12.5 nM; in test [2] it was 1010 nM.

Take `Clc1ccc2c(c1)c(OC1CCNCC1)nn2-c1ccccc1` [Example 101, 5-Chloro-1-phenyl-3-(piperidin-4-yloxy)-1H-indazole hydrochloride]: the Ki in test [1] stood at 607 nM; in test [2], 304 nM.

Turning to `Fc1ccc(-n2nc(OC[C@H]3CCCNC3)c3cc(F)ccc32)c(F)c1` [Example 49, (S)-(−)-1-(2,4-Difluorophenyl)-5-fluoro-3-(piperidin-3-ylmethoxy)-1H-indazole hydrochloride], the Ki in test [1] was determined as 98.5 nM; in test [2], 20.5 nM.

As for `Fc1ccc2c(c1)c(OCC1CCCNC1)nn2-c1ccccn1` (stereo not shown) [Example 99, 5-Fluoro-3-(piperidin-3-ylmethoxy)-1-pyridin-2-yl-1H-indazole hydrochloride], the Ki is 319 nM in test [1] and 259 nM in test [2].

As for `Fc1ccc(-n2nc(OC3CCNCC3)c3c(F)cccc32)c(F)c1` [Example 88, 1-(2,4-Difluoro-phenyl)-4-fluoro-3-(piperidin-4-yloxy)-1H-indazole hydrochloride], the Ki amounted to 16.3 nM in test [1] and 88.1 nM in test [2].

As for `Fc1ccc(F)c(-n2nc(OC[C@@H]3CNCCO3)c3ccccc32)c1` [Example 28, (S)-(+)-1-(2,5-Difluorophenyl)-3-(morpholin-2-ylmethoxy)-1H-indazole maleate], the values for the Ki in test [1] and in test [2] were 5.1 nM and 640 nM, respectively.

On to `Fc1cccc2c1c(OC1CCNCC1)nn2-c1ccccc1` [Example 103, 4-Fluoro-1-phenyl-3-(piperidin-4-yloxy)-1H-indazole hydrochloride], for which the Ki in test [1] turned out to be 34.1 nM; in test [2] it was 293 nM.

In the case of `Fc1cc2c(OCC3CCCNC3)nn(-c3ccccc3F)c2cc1F` (stereo not shown) [Example 76, 5,6-Difluoro-1-(2-fluoro-phenyl)-3-(piperidin-3-ylmethoxy)-1H-indazole hydrochloride], the Ki was 40.4 nM in test [1] and 158 nM in test [2].

As for “(S)-1-(2,6-Difluoro-phenyl)-3-(morpholin-2-ylmethoxy)-1H-indazole hydrochloride [Example 24]”, the Ki came to 9.65 nM in test [1] and 5430 nM in test [2].

As for `Fc1ccc2c(OC3CCNCC3)nn(-c3ccccc3F)c2c1` [Example 63, 6-Fluoro-1-(2-fluoro-phenyl)-3-(piperidin-4-yloxy)-1H-indazole hydrochloride], the Ki in test [1] turned out to be 39.5 nM; in test [2], 19.4 nM.

As to `c1ccc(-n2nc(OCC3CCNCC3)c3ccccc32)cc1` (racemic) [Example 17, (±)-1-Phenyl-3-(piperidin-4-ylmethoxy)-1H-indazole hydrochloride], the Ki is 151 nM in test [1] and 28 nM in test [2].

Turning to `Fc1cccc(F)c1-n1nc(OC2CCNCC2)c2c(F)cccc21` [Example 109, 1-(2,6-Difluoro-phenyl)-4-fluoro-3-(piperidin-4-yloxy)-1H-indazole hydrochloride], the Ki in test [1] turned out to be 46.2 nM; in test [2], 279 nM.

`Fc1cc2c(OC3CCNCC3)nn(-c3ccccc3F)c2cc1F` [Example 75, 5,6-Difluoro-1-(2-fluoro-phenyl)-3-(piperidin-4-yloxy)-1H-indazole hydrochloride]: the Ki in test [1] amounted to 36.4 nM; in test [2], 39.8 nM.

In the case of `Fc1ccccc1-n1nc(OCC2CCCNC2)c2ccccc21` (stereo not shown) [Example 4, 1-(2-Fluorophenyl)-3-(piperidin-3-ylmethoxy)-1H-indazole hydrochloride], the values for the Ki in test [1] and in test [2] were 3 nM and 270 nM, respectively.

As for `Fc1ccc(F)c(-n2nc(OC[C@@H]3CCNC3)c3c(F)cccc32)c1` [Example 93, (R)-1-(2,5-Difluoro-phenyl)-4-fluoro-3-(pyrrolidin-3-ylmethoxy)-1H-indazole hydrochloride], the Ki was 16.4 nM in test [1] and 224 nM in test [2].

As for `Fc1ccc2c(c1)c(OC1CCNCC1)nn2-c1c(F)cccc1F` [Example 108, 1-(2,6-Difluoro-phenyl)-5-fluoro-3-(piperidin-4-yloxy)-1H-indazole hydrochloride], the results for the Ki in test [1] and in test [2] were 5.72 nM and 43 nM, respectively.

Take `Fc1ccc(-n2nc(OC[C@H]3CCCNC3)c3c(F)cccc32)cc1` [Example 84, (S)-4-Fluoro-1-(4-fluoro-phenyl)-3-(piperidin-3-ylmethoxy)-1H-indazole hydrochloride]: the Ki in test [1] amounted to 38.1 nM; in test [2], 487 nM.

Regarding `Fc1cccc(F)c1-n1nc(OC[C@H]2CCCNC2)c2c(F)cccc21` [Example 110, (S)-1-(2,6-Difluorophenyl)-4-fluoro-3-(piperidin-3-ylmethoxy)-1H-indazole hydrochloride], the Ki came to 16.3 nM in test [1] and 422 nM in test [2].

Take `Fc1ccc(-n2nc(OC[C@H]3CCCNC3)c3ccccc32)cc1F` [Example 33, (S)-1-(3,4-Difluoro-phenyl)-3-(piperidin-3-ylmethoxy)-1H-indazole hydrochloride]: the Ki in test [1] was determined as 19.2 nM; in test [2], 198 nM.

`Fc1ccc(F)c(-n2nc(OC[C@@H]3CCNC3)c3cc(F)ccc32)c1` [Example 40, (R)-1-(2,5-Difluoro-phenyl)-5-fluoro-3-(pyrrolidin-3-ylmethoxy)-1H-indazole hydrochloride]: the Ki was 5.02 nM in test [1] and 30.8 nM in test [2].
